The test system of this test is macrophages. Put plainly: IL8 secretion by macrophages incubated with serotonin receptor agonists (bead-based immunoassay). The settings on record: human monocyte-derived macrophages (M-CSF). The format is cell-based. As to the method:
CD14+ monocytes were isolated from human PBMCs using negative magnetic bead selection (Stemcell Technologies) on day 0. Cells were cultured with M-CSF to differentiate monocytes to macrophages. On day 6, cells were treated with LP44 (high affinity 5-HT7 agonist), BW 723C86 hydrochloride (5-HT2B agonist), MK 212 hydrochloride (5-HT2C agonist) (Sigma-Aldrich), at concentrations 1 μM and 10 μM overnight. Supernatant was collected and bead-based immunoassays (Biolegend) were performed to detect changes in cytokine secretion.
Across multiple human donors, secretion of the inflammatory cytokine, IL8, by macrophages was decreased after addition of each of the HTR2B, HTR2C, and HTR7 agonists, as show in Table 18 below.

The structures appear in SMILES notation.

With `CSc1ccccc1N1CCN(CCCCCC(=O)NC2CCCc3ccccc32)CC1` (stereo not drawn) [LP44], the “Fold change of IL-8 (Normalized to Macs + LPS with no compound treatment)” value by setting is: (1 μM overnight) 0.340; (10 μM overnight) 0.427.

For `CC(N)Cc1c[nH]c2ccc(OCc3cccs3)cc12.Cl` (stereo not drawn) [BW723086], the “Fold change of IL-8 (Normalized to Macs + LPS with no compound treatment)” value is recorded as 0.670 (1 μM overnight) and 0.508 (10 μM overnight).

Take `Clc1cncc(N2CCNCC2)n1` [MK212]: the “Fold change of IL-8 (Normalized to Macs + LPS with no compound treatment)” value runs as follows: (1 μM overnight) 0.502; (10 μM overnight) 0.484.

The values above are taken from patent publication US11034751B1, “Methods and compositions for treating cancer using serotonin receptor inhibitors” (Flagship Pioneering Innovations V, Inc., priority 2018, dated 2021).
